From patent US20240199562A1, “UREA DERIVATIVES FOR TREATING UVEAL MELANOMA” (CENTRE NATIONAL DE LA RECHERCHE SCIENTIFIQUE, priority 2021, published 2024)
Read-outs that look alike come from different tables or passages of the source. Blank lines part the entries; values can stand above or below the molecule they belong to.

Columns and labels:
[1] = system: MP41 cells; assay: Cell viability (XTT) on uveal melanoma cells MP41; format: cell-based; details: for metabolism of UM cells (XTT): MP41 cells, increasing doses, FIG. 2A; for IC50: MP41 cells (primary tumor); for viability of cells: MP41 cells from the primary tumor, in words
Protocol: (§1) FIG. 1: In vitro efficacy of MCK140 and MCK151 on uveal melanoma cells. Cells were treated for 48 hours with increasing doses of MCK140 or MCK151 and the cell viability was then evaluated by XTT.
(§2) FIG. 2A: In vitro efficacy of MCK151, Ladarixin, and AZD-5069 in uveal melanoma cells. MP41 and MM66 cells were treated for 48 hours with increasing doses of MCK151 or Ladarixin or AZD-5069 and the cell metabolism was then evaluated by XTT.
(§3) Cell culture: Uveal melanoma cells were derived from the primary tumor (eye tumor, MP38 and MP46) and one is from liver metastasis (MM66) were a kind gift from Dr. Roman Roman (Curie Institute). UM cells were cultured in RPMI medium supplemented with 20% FBS.
(§4) Cell viability (XTT): Cells (5×10^3 cells/100 μl) were incubated in a 96-well plate with different effectors for the times indicated in the figure legends. 50 μl of sodium 3′-[1-phenylaminocarbonyl)-3,4-tetrazolium]-bis(4-methoxy-6-nitro) benzene sulfonic acid hydrate (XTT) reagent was added to each well. The assay is based on the cleavage of the yellow tetrazolium salt XTT to form an orange formazan dye by metabolically active cells. Absorbance of the formazan product, reflecting cell viability, was measured at 490 nm. Each assay was performed in quadruplicate.

[2] = system: MM66 cells; assay: Cell viability (XTT) on uveal melanoma cells MM66; format: cell-based; details: for metabolism of UM cells (XTT): MM66 cells, increasing doses, FIG. 2A; for viability of cells: MM66 cells from liver metastases, in words
Protocol: as §1, §2, §3, §4

[3] = system: MP41 cells; assay: ROS assay (CellROX Deep Red, cytometry); format: cell-based; details: MCK151 1, 2.5, 5 μM, Ladarixin 10 μM, FIG. 2B
Protocol: FIG. 2B: Inhibition of ROS production by MCK151 and Ladarixin in uveal melanoma cells. MP41 cells were treated for 48 hours with increasing doses of MCK151 (1 μM, 2.5 μM, and 5 μM) or Ladarixin (10 μM) and ROS quantity was evaluated by cytometry.
ROS assay: Deep Red Reagent was used to assess the level of intracellular ROS. The CellROX/Deep Red reagent (which is initially non-fluorescent) freely enters the cells, where it is cleaved by endogenous esterases. After oxidization by ROS, the reagent becomes highly fluorescent with an absorption/emission maximal of 644/665 nm. Cells were treated 24h and incubated at 37° C. with CellROX Deep Red reagent (0.01 umol/L) for 2 h. The cells were then washed with PBS and analyzed by cytometry.

[4] = system: MP38 cells; assay: Cell viability (XTT) on uveal melanoma cells MP38; format: cell-based; details: for IC50: MP38 cells (primary tumor), 48 hours, XTT; for viability of cells: MP38 cells from the primary tumor, in words
Protocol: as §1, §3, §4

[5] = system: MP41 cells; assay: Tumor xenograft, intraperitoneal injection; format: in vivo, mice
Protocol: FIG. 4: In vivo efficacy of MCK151 on mice treated by intraperitoneal injection. Five million MP41 cells were injected subcutaneously into the flank of 5-week-old NOD-SCID female mice. When the tumor reached 100 mm^3, mice were treated every day for 20 days, by intraperitoneal injection with placebo (dextrose water vehicle) or MCK151 (200 or 400 μg in dextrose water vehicle) • A: The tumor volume was evaluated using a calliper. The results are presented as the means±sd. ** p<0.01 • B: Tumor weight at the end of the experiment. ** p<0.01, *** p<0.001 • C: Animal weight at the end of the experiment. ns: non significant
(§5) Tumor xenograft experiments: These studies were carried out in strict accordance with the recommendations in the Guide for the Care and Use of Laboratory Animals. Our experiments were approved by the “Comité National Institutionnel d'Ethique pour l'Animal de Laboratoire”. Five million MP41 cells were injected subcutaneously into the flank of 5-week-old Nod-SDIC female mice (Janvier). When the tumor reached 100 mm3, mice were treated. The tumor volume was determined with a caliper (v=L*l2*0.5).

[6] = system: MMP9 mRNA; assay: MMP9 mRNA levels by RT-qPCR; format: cell-based; details: MP41 and MM66 cells, 24 hours, 2.5 μM, FIG. 3B
Protocol: FIG. 3B: MMP9 mRNA levels (AU) in uveal melanoma cells. MP41 and MM66 cells were treated for 24 hours with MCK151 (2.5 μM) and MMP9 mRNA levels were evaluated by qPCR. *** p<0.001.
Analyses by RT-qPCR: RNA from cells were purified with the RNeasy Mini Kit (Quiagen). The “QuantiTect Reverse Transcription Kit” (Qiagen) was used for cDNA obtention. The PCR program was executed on “Professional Basic Thermocycler” (Biometra). SYBR master mix plus (Eurogentec) was used for qPCR. The mRNA levels were normalized to 36B4 mRNA.

[7] = system: SLUG; assay: SLUG protein amount by immunoblotting; format: cell-based; details: MP41 and MM66 cells, 2.5 μM, 0-24 h, FIG. 3C
Protocol: FIG. 3C: Slug proteins amount in uveal melanoma cells treated by MCK151. MP41 and MM66 cells were treated with MCK151 (2.5 μM) for different time (0, 2, 4, 6, 8, and 24 h). SLUG protein amounts were evaluated by immunoblotting. HSP90 is used as a loading control.
Immunoblotting: Cells were lysed in SDS 7.5%; glycerol 30%; Tris 0.3 M pH 6.8 lysis buffer. 30 μg of proteins were separated on 10% SDS—polyacrylamide gels and transferred on PVDF membranes. The following primary antibodies were used: SLUG (Cell signaling, ref:9585) and HSP90 (Cell signaling, ref:4877).

[8] = system: MP41 cells; assay: Tumor xenograft, gavage; format: in vivo, mice; details: orally
Protocol: FIG. 5: In vivo efficacy of MCK151 on mice treated by gavage. Five million MP41 cells were injected subcutaneously into the flank of 5-week-old NOD-SCID female mice. When the tumor reached 100 mm^3, mice were treated every day for 27 days, by gavage with placebo (10% ethanol vehicle) or MCK151 (33 or 100 mg/kg in 10% ethanol vehicle). • A: The tumor volume was evaluated using a calliper. The results are presented as the means±sd. ** p<0.01, *** p<0.001 • B: Tumor weight at the end of the experiment. ** p<0.01, *** p<0.001 ns: non significant • C: Animal weight at the end of the experiment. ns: non significant
as §5
An oral formulation (10% ethanol in ultrapure water) was developed and tested in the same in vivo model (FIG. 5). […] However, a 100 mg/kg dose reduced tumor growth (50% reduction, FIG. 5A).

[9] = system: MM66 cells; assay: Migration assay (Boyden chamber); format: cell-based
Protocol: FIG. 3A: Evaluation of the migration ability of uveal cells treated with MCK151. MP41 and MM66 cells migration was analysed using Boyden chamber assays in the presence/absence of MCK151 (0.1 to 2.5 μM). Representative images were shown. ** p<0.01, *** p<0.001
Migration assays: 50 000 cells were cultured in RPMI 0% FCS and seeded in Boyden chambers. After 24 h, Boyden chambers were washed with PBS. Migrative cells were fixed with paraformaldehyde 3% and colored with crystal violet.

[10] = 48 h, Table 3, read-out: IC50 (μM) at 48 h MP41
[11] = MM66 cells (liver metastases), 48 h, Table 3, read-out: IC50 (μM) at 48 h MM66
[12] = 48 hours, XTT, Table 2, read-out: IC50 (μM) UM MP41
[13] = MM66 cells (liver metastasis), 48 hours, XTT, Table 2, read-out: IC50 (μM) UM MM66

- IC50 [1, 10]: 32 µM
- IC50 [2, 11]: 40 µM
SMILES: O=C(Nc1ccccc1)Nc1nc2ccccc2[nH]1 [MCK113, 1-(1H-benzo[d]imidazol-2-yl)-3-phenylurea]

- IC50 [1, 10]: 20 µM
- IC50 [2, 11]: 15 µM
SMILES: O=C(Nc1nc2ccc([N+](=O)[O-])cc2s1)Nc1ccccc1Cl [MCK139, 1-(2-chlorophenyl)-3-(6-nitrobenzo[d]thiazol-2-yl)urea]

- IC50 [1, 10]: 1 µM
- IC50 [1, 12]: 1 µM
- IC50 [4]: 1 µM
- IC50 [2, 11]: 1.25 µM
- IC50 [2, 13]: 1.25 µM
SMILES: O=C(Nc1cccc(Cl)c1)Nc1nc2ccc([N+](=O)[O-])cc2s1 [MCK140, 1-(3-chlorophenyl)-3-(6-nitrobenzo[d]thiazol-2-yl)urea]
- viability of cells [1]: decreased the viability
- viability of cells [4]: decreased the viability
- viability of cells [2]: decreased the viability

- IC50 [1, 10]: 50 µM
- IC50 [2, 11]: 50 µM
SMILES: Nc1ccc2nc(NC(=O)Nc3cccc(Cl)c3)sc2c1 [MCK148, 1-(6-aminobenzo[d]thiazol-2-yl)-3-(3-chlorophenyl)urea]

- IC50 [1, 10]: 30 µM
- IC50 [2, 11]: 12 µM
SMILES: Cc1cccc(NC(=O)Nc2nc3ccc([N+](=O)[O-])cc3o2)c1 [MCK153, 1-(6-nitrobenzo[d]oxazol-2-yl)-3-(m-tolyl)urea]

- IC50 [1, 10]: 8 µM
- IC50 [2, 11]: 10 µM
SMILES: O=C(Nc1ccccc1)Nc1nc2ccc([N+](=O)[O-])cc2[nH]1 [MCK157, 1-(6-nitro-1H-benzo[d]imidazol-2-yl)-3-phenylurea]

- IC50 [1, 10]: 20 µM
- IC50 [2, 11]: 10 µM
SMILES: O=C(Nc1cccc(Cl)c1)Nc1nc2ccc(Br)cc2s1 [MCK159, 1-(6-bromobenzo[d]thiazol-2-yl)-3-(3-chlorophenyl)urea]

- IC50 [1, 10]: 10 µM
- IC50 [2, 11]: 5 µM
SMILES: O=C(Nc1cccc(Cl)c1)Nc1nc2ccc(-c3cccc4ccccc34)cc2s1 [MCK164, 1-(3-chlorophenyl)-3-(6-(naphthalen-1-yl)benzo[d]thiazol-2-yl)urea]

- IC50 [1, 10]: 30 µM
- IC50 [2, 11]: 25 µM
SMILES: O=C(Nc1cccc(Cl)c1)Nc1nc2ccc(-c3ccccn3)cc2s1 [MCK172, 1-(3-chlorophenyl)-3-(6-(pyridin-2-yl)benzo[d]thiazol-2-yl)urea]

Continued, molecule first:

SMILES: C[C@@H](Oc1cc(NS(=O)(=O)N2CCC2)nc(SCc2cccc(F)c2F)n1)[C@@H](O)CO [AZD-5069, reference compound]
- metabolism of UM cells (XTT) ([1]; 48 hours): no effect
- metabolism of UM cells (XTT) ([2]; 48 hours): no effect

SMILES: C[C@@H](C(=O)NS(C)(=O)=O)c1ccc(OS(=O)(=O)C(F)(F)F)cc1 [Ladarixin, reference compound]
- metabolism of UM cells (XTT) ([1]; 48 hours): no effect
- ROS production by UM cells [3]: no effect
- metabolism of UM cells (XTT) ([2]; 48 hours): no effect

SMILES: CCOc1ccc2nc(NC(=O)Nc3ccccc3C)sc2c1 [MCK133, 1-(6-ethoxybenzo[d]thiazol-2-yl)-3-(o-tolyl)urea]
- IC50 [1, 10]: 15 µM
- IC50 [2, 11]: 20 µM

SMILES: CCOc1ccc2nc(NC(=O)Nc3ccc(OC)cc3)sc2c1 [MCK135, 1-(6-ethoxybenzo[d]thiazol-2-yl)-3-(4-methoxyphenyl)urea]
- IC50 [1, 10]: 50 µM
- IC50 [2, 11]: 50 µM

SMILES: CC(=O)Nc1ccc2nc(NC(=O)Nc3cccc(Cl)c3)sc2c1 [MCK149, N-(2-(3-(3-chlorophenyl)ureido)benzo[d]thiazol-6-yl)acetamide]
- IC50 [1, 10]: 40 µM
- IC50 [2, 11]: 25 µM

SMILES: O=C(Nc1cc(Cl)cc(Cl)c1)Nc1nc2ccc([N+](=O)[O-])cc2s1 [MCK151, 1-(3,5-dichlorophenyl)-3-(6-nitrobenzo[d]thiazol-2-yl)urea]
- inhibition of tumor growth ([5]; NOD-SCID mice, 400 μg dose, FIG. 4A): 73%
- growth of experimental tumors ([5]; NOD-SCID mice, 200 or 400 μg every day for 20 days, FIG. 4A): inhibited
- tumors at the end of the experiment ([5]; NOD-SCID mice, FIG. 4B (tumor weight)): smaller
- weight of mice ([5]; whatever the concentration, FIG. 4C): did not modify the weight of mice
- IC50 [1, 10]: 1.25 µM
- IC50 [1, 12]: 1.25 µM
- viability of cells [1]: decreased the viability
- metabolism of UM cells (XTT) ([1]; 48 hours): strongly inhibits the metabolism of UM cells
- MMP9 mRNA levels [6]: decreases MMP9 mRNA levels
- expression of SLUG [7]: decreases
- ROS production by UM cells [3]: inhibits ROS production
- IC50 [4]: 1 µM
- viability of cells [4]: decreased the viability
- tumor growth ([8]; 33 mg/kg per day, FIG. 5): had a trend to decrease tumor growth
- reduction of tumor growth ([8]; 100 mg/kg dose, FIG. 5A): 50%
- reduction of tumor weight ([8]; 100 mg/kg dose, FIG. 5B): 50%
- mice weight ([8]; 33 and 100 mg/kg/day, FIG. 5C): did not modify mice weight
- concentration of optimal effect on migration ([9]; Boyden chamber): 0.5 µM
- migration ability ([9]; MCK151 0.1 to 2.5 μM, FIG. 3A): inhibits this migration ability
- IC50 [2, 11]: 1.5 µM
- IC50 [2, 13]: 1.5 µM
- viability of cells [2]: decreased the viability
- metabolism of UM cells (XTT) ([2]; 48 hours): strongly inhibits the metabolism of UM cells
